Assay results published in patent EP0561913B1, “USE OF PYRIDINE DERIVATIVES IN THE TREATMENT OF OCULAR HYPERTENSION” (ALLERGAN, INC., priority 1990, dated 1992).
“Also recorded” adds a separate entry of the source. Read-outs that look alike come from different tables or passages of the source. Values belong to the compound of their own block, whether it stands above or below them.

Legend:
rabbits [1] = test: In vivo study of intraocular pressure reducing activity, intracameral injection
Protocol: (§1) Pyridine-1,2,3,6-tetrahydro-5-(5-isoxazolyl)-1-methyl-ethanedioate ("test compound") or pilocarpine were applied either topically into the eyes of owl monkeys (200 µg in 10 µl) or intracamerally into the eye of rabbits (10 µg in 20 µl). Control animals were treated with a saline vehicle. Pupil diameter and IOP were measured for 0-6 hours. IOP was measured using pneumatometer (Digilab/ Biorad) and pupil diameter was measured using Optistick ruler (Allergan). Animals used in these studies had normal intraocular pressure.
(§2) Muscarinic activity was determined by treatment with atropine (muscarinic antagonist). In rabbits 5 µg atropine was coinjected with the test compounds and in owl monkey 5 µg atropine (10 µl) was applied 30 minutes before treatment with the test compound.
(§3) Intraocular pressure (mmHg) or pupil diameter (mm) were expressed as changes from time 0.

owl monkeys [2] = test: In vivo study of intraocular pressure reducing activity, topical application
Protocol: as §1, §2, §3

[3] = test system: cat ciliary smooth muscle; test: In vitro contraction of isolated ciliary smooth muscle in organ bath; format: cell-based; conditions: for EC50: cumulative dose response, 37°C, read-out: ED50 (concentration that caused 50% of maximum contraction)
Protocol: (§4) Iris sphincter and ciliary smooth muscles were excised from freshly enucleated cat eyes. The tissues were placed in an organ bath containing Tyrode's solution (composition in mM: NaCl 137, KCl 2.7, CaCl2 1.8, MgCl2 1.05, NaHCO3 11.9, NaH2PO4 0.42, D-glucose 5.6) at 37°C, aerated with 95% oxygen and 5% carbon dioxide. One end of the tissue was fastened to a hook in the bath and the other end was attached to a force displacement transducer connected to a polygraph. The tissues were allowed to equilibrate for 60 minutes under a load of 100-200 mg tension. […] Increasing concentrations of the test compound (0.1 - 1000 µM) were then added into the bath to generate cumulative dose response. […] Results were from three or more experiments expressed as mean ± S.E.

[4] = test system: cat iris sphincter smooth muscle; test: In vitro contraction of isolated iris sphincter smooth muscle in organ bath; format: cell-based; conditions: for EC50: cumulative dose response, 37°C, read-out: ED50 (concentration that caused 50% of maximum contraction)
Protocol: as §4

rabbits [5] = conditions: normotensive rabbits or humans, from literature; cited from earlier work
rabbits [6] = test: Pupil diameter (miosis), intracameral injection
Protocol: as §1, §2, §3

owl monkeys [7] = test: Pupil diameter (miosis), topical application
Protocol: as §1, §2, §3

[8] = topical 5 µg/10 µl atropine, test compound 200 µg/10 µl

EC50 ([3]; Felis catus): 4 µM
EC50 ([4]; Felis catus, cat iris sphincter muscle): 4 µM
SMILES: CC[C@@H]1C(=O)OC[C@@H]1Cc1cncn1C [pilocarpine, (3S,4R)-3-ethyl-4-{(1-methyl-1H-imidazol-5-yl)methyl}-3,4-dihydro-2(3H)-furanone]
effect on IOP (rabbits [1]; normotensive rabbits, intracameral 10 µg/20 µl, result in words): no hypotensive effect; also recorded: slight hypertensive action
decrease in IOP (owl monkeys [2]; topical 200 µg/10 µl, at 3 hours, effect decreased thereafter): about 3 mmHg
decrease in IOP (rabbits [5]): little or no decrease

SMILES: CN1[C@@H]2CC[C@H]1C[C@@H](OC(=O)C(CO)c1ccccc1)C2 (some centres unmarked) [atropine]
inhibition of IOP effect of the test compound by atropine (rabbits [1]; rabbits, 5 µg/20 µl atropine coinjected with test compound 10 µg/20 µl): partial inhibition
inhibition of IOP effect of the test compound by atropine (rabbits [1]; rabbits, topical 0.5% atropine solution every 2 hours (data not shown)): no inhibitory effect
inhibition of IOP reducing effect of the test compound by atropine (owl monkeys [2]; [8]): no inhibitory effect
inhibition of miotic effect of the test compound by atropine (rabbits [6]; 5 µg atropine with test compound 10 µg/20 µl intracameral): completely inhibited
inhibition of miotic effect of the test compound by atropine (owl monkeys [7]; [8]): completely inhibited
inhibition of test compound-induced contraction by atropine ([3]; 10 nM atropine for 30 minutes before test compound): competitive inhibition
effect of atropine in inhibiting the response of the iris relative to the ciliary ([4]; 10 nM atropine, iris versus ciliary muscle): 2.5 times
inhibition of test compound-induced contraction by atropine ([4]; cat iris sphincter muscle, 10 nM atropine for 30 minutes before test compound): competitive inhibition

miosis (rabbits [6]; intracameral 10 µg/20 µl, effect of pilocarpine greater than that of the test compound): caused miosis
time of maximum miotic response (rabbits [6]; intracameral 10 µg/20 µl, followed by recovery): 0.5 h
miosis, decrease in pupil size (owl monkeys [7]; topical 200 µg/10 µl, at 1 hour): 48%
miosis, recovered to % of 0 time (owl monkeys [7]; topical 200 µg/10 µl, within 3 to 6 hours): 15%
EC50 [3]: 30 µM
EC50 ([4]; cat iris sphincter muscle): 20 µM
SMILES: CN1CCC=C(c2ccno2)C1.O=C(O)C(=O)O [test compound, Pyridine-1,2,3,6-tetrahydro-5-(5-isoxazolyl)-1-methyl-ethanedioate]
decrease in IOP (rabbits [1]; normotensive rabbits, intracameral 10 µg/20 µl, 5 hours after administration, change from time 0): 6 mmHg
duration of IOP decreasing activity (rabbits [1]; rabbits, intracameral 10 µg/20 µl, experimental period ended at 6 hours): > 6 h
maximum decrease in IOP (owl monkeys [2]; topical 200 µg/10 µl, after 5 and 6 hours): 4 mmHg
duration of IOP reducing effect (owl monkeys [2]; topical 200 µg/10 µl, experimental period of 6 hours): > 6 h
